In series [1] the test system is Dysdercus koenigii. In words: Insecticidal activity against 5th instar nymph of Dysdercus koenigii assessed as mortality per nymph. The class given is functional.
Another series has as its system Pyricularia grisea. Kind of series: Antifungal activity against Magnaporthe grisea after 48 hrs by microbroth dilution method. The class given is functional. (In general: Broth dilution looks for growth in wells or tubes with falling amounts of substance.)
Another series deals with Fusarium oxysporum. In words: Antifungal activity against Fusarium oxysporum after 48 hrs by microbroth dilution method. Format: functional.
The test system of a further series is Drechslera. Kind of series: Antifungal activity against Dreschlera oryzae after 48 hrs by microbroth dilution method. Format: functional.
A further series deals with Debaryomyces hansenii. In words: Antifungal activity against Debaryomyces hansenii after 48 hrs by microbroth dilution method. Format: functional.
A short description of series [2]: Antifungal activity against Pichia membranifaciens after 48 hrs by microbroth dilution method. The class given is functional.
The subject of series [3] is Candida albicans. In words: Antifungal activity against Candida albicans NCIM 3557 after 48 hrs by microbroth dilution method. The class given is functional.
Series [4] has as its system Candida albicans. In words: Antifungal activity against Candida albicans after 48 hrs by microbroth dilution method. The class given is functional.
In series [5] the test system is Candida albicans. In words: Antifungal activity against Candida albicans NCIM 3471 after 48 hrs by microbroth dilution method. The class given is functional.
Another series deals with Nakaseomyces glabratus. In words: Antifungal activity against Candida glabrata NCIM 3237 after 48 hrs by microbroth dilution method. The class given is functional.
Series [6] deals with Cryptococcus neoformans. In words: Antifungal activity against Cryptococcus neoformans after 48 hrs by microbroth dilution method. The class given is functional.
In series [7] the test system is Cryptococcus neoformans. In words: Antifungal activity against Cryptococcus neoformans NCIM 3541 after 48 hrs by microbroth dilution method. The class given is functional.
Series [8] has as its system Cryptococcus neoformans. Kind of series: Antifungal activity against Cryptococcus neoformans NCIM 3542 after 48 hrs by microbroth dilution method. Format: functional.
For series [9], the system named is Cryptococcus neoformans. Kind of series: Antifungal activity against Cryptococcus neoformans NCIM 3378 after 48 hrs by microbroth dilution method. The class given is functional.
The nature of series [10]: Toxicity in RBC assessed as induction of hemolysis. To be noted: red blood cells (RBC). Format: cell-based, Erythrocyte.
Series [11] can be described thus: Toxicity in RBC assessed as induction of hemolysis at 1000 ug/ml. The note with it: red blood cells (RBC); read-out: Activity. The class given is cell-based, Erythrocyte.
In series [12] the test system is Dysdercus koenigii. Kind of series: Insecticidal activity against 5th instar nymph of Dysdercus koenigii assessed as smaller body size at 20 and 50 ug/nymph. The class given is functional.
For series [13], the system named is Dysdercus koenigii. Kind of series: Insecticidal activity against 5th instar nymph of Dysdercus koenigii assessed as crumpled wings at 20 and 50 ug/nymph. The class given is functional.
The subject of series [14] is Dysdercus koenigii. In words: Insecticidal activity against 5th instar nymph of Dysdercus koenigii assessed as deformed legs at 20 and 50 ug/nymph. The class given is functional.
Series [15] is described as follows: Toxicity in RBC assessed as induction of hemolysis at MIC. To be noted: red blood cells (RBC); read-out: Activity. Format: cell-based, Erythrocyte.

Values after ≈ are worked out from the molar mass of the structure shown. Active and inactive are the calls of the source.

As a reminder, the MIC is the smallest concentration in the dilution series that meets the test's criterion for growth inhibition. The low end stands for greater potency, the high end for weaker potency. The term HC50 denotes the concentration that lyses half of the red blood cells.

Regarding `Cc1cc(NC(=S)NC(=O)c2ccc(F)cc2)c(C(C)C)cc1O`, the LD50 in the series with Dysdercus koenigii [1] turned out to be 12.6 µg. For the same molecule, the minimal inhibitory concentration (MIC) was 256 µg/mL (≈ 739 µM) in the series on Pyricularia grisea; 128 µg/mL (≈ 369 µM) with Fusarium oxysporum; 256 µg/mL (≈ 739 µM) in the series with Drechslera; 256 µg/mL (≈ 739 µM) in the series on Debaryomyces hansenii; 512 µg/mL (≈ 1480 µM) in [2]. Moreover, the GI in the series on Candida albicans [3] was 64 µg/mL; in the series on Candida albicans [4], 64 µg/mL; in the series on Candida albicans [5] it was above 512 µg/mL; in the series on Nakaseomyces glabratus, 64 µg/mL; with Cryptococcus neoformans [6], 16 µg/mL; in the series on Cryptococcus neoformans [7], 32 µg/mL. The GI in the series on Cryptococcus neoformans [8] was 64 µg/mL; in the series with Cryptococcus neoformans [9], 128 µg/mL. The HC50 in series [10] is above 1000 µg/mL. For the same molecule, in series [11], the hemolysis at 1000 ug/ml came out at 17%.
Take `Cc1cc(NC(=O)NC(=O)c2c(F)cccc2F)c(C(C)C)cc1O`: the LD50 in the series with Dysdercus koenigii [1] turned out to be 9.5 µg. Also, the result in the series on Dysdercus koenigii [12], in the series with Dysdercus koenigii [13] and with Dysdercus koenigii [14] was Active. Moreover, the MIC (in the series on Pyricularia grisea; against Fusarium oxysporum; against Drechslera; with Debaryomyces hansenii; in [2]) was above 512 µg/mL each time. Moreover, the GI in the series with Candida albicans [3] is above 512 µg/mL; in the series with Candida albicans [4], 16 µg/mL; with Candida albicans [5], 32 µg/mL; with Nakaseomyces glabratus it was 16 µg/mL; with Cryptococcus neoformans [6], above 512 µg/mL; in the series with Cryptococcus neoformans [7] it was below 4 µg/mL. Also, the GI with Cryptococcus neoformans [8] and in the series with Cryptococcus neoformans [9] was 16 µg/mL each time. The HC50 in [10] is above 1000 µg/mL. In addition, the hemolysis in series [15] is below 2%.
